Test results reported in US11642388B2, “Antidepressant compound preparation and preparation method thereof” (Chenland Nutritionals Inc., priority 2020, dated 2023).

Tests used:
Format in all cases: in vivo
[1] = test system: SPF grade male C57BL/6J mice; test: Mouse tail suspension test; settings: 3.33 mg/kg by gavage daily for one month, last 4 minutes of 6 minutes, x ± SE
Method: (§1) 72 SPF grade male C57BL/6J mice which are 20±2 g in weight are selected. 6 mice are kept in each cage, free to forage and drink, and kept in a room with controlled light, temperature and humidity: the temperature is 21° C.±2° C., the humidity is 50%±10%, and the light and dark cycle is 12 hours/12 hours (light on at 20:00, light off at 8:00). All animal experiments are carried out in accordance with the guidelines on laboratory animal welfare and use issued by NIH.
(§2) After arrival, the mice are allowed to acclimate for one week before entering experiments.
(§3) The mice in the normal group are given the same volume of purified water by gavage, and the gavage doses for the mice in other groups are shown in the result tables. The mice are treated by gavage at a fixed time (9:00) every morning with a gavage volume of 0.1 mL·10 g^−1, and the administration is lasted for one month. A behavioral test is performed 1 hour after the last gavage.
In the tail suspension test, medical tape is used to suspend each mouse at ⅓ of the tail tip on a tail suspension device. The mice are suspended vertically with the heads facing camera lens, and are about 30 cm above the ground. The immobility time of each group of mice in the tail suspension test is recorded by a video camera for 6 minutes, and the tail suspension immobility time of the mice is calculated according to the last 4 minutes. […]

[2] = test system: SPF grade male C57BL/6J mice; test: Mouse open field test; settings: 3.33 mg/kg by gavage daily for one month; 6 minutes; x ± SE
Method: The test is performed in an open field box with a length of 50 cm, a width of 50 cm, and a depth of 50 cm. The bottom surface of the open field box is equally divided into 9 squares, the area right in the middle is a central area, and the remaining areas are peripheral areas. The bottom and four sides of the open field box are all white. The test is performed in a quiet and weak red light environment. […] The total movement distance of the mice, the movement distance in the central area and the number of standing-uprights are recorded.

[3] = test system: SPF grade male C57BL/6J mice; test: Mouse forced swimming test (Embodiment 9); settings: 3.33 mg/kg by gavage daily for one month, 5 minutes formal test, x ± SE
Method: as §1, §2, §3
When forced to swim, all the animals are respectively put in a plexiglass cylinder with a water temperature of 23° C.±1° C. and a water depth of 20 cm. After 15 minutes, the animals are transferred to a dry environment with a temperature of 30° C. and kept for 30 minutes (pretest). After 24 hours, the mice are put into the plexiglass cylinder again and kept for 5 minutes (formal test). A video camera is used during the test for recording. […]

CNCCC(Oc1ccc(C(F)(F)F)cc1)c1ccccc1 (stereo not drawn) [Fluoxetine, fluoxetine]
Tail suspension immobility time [1]: 59.62 ± 6.270 s | Tail suspension immobility time ([1]; listed as fluoxetine): significantly shorter | Number of standing-uprights [2]: 29.20 ± 2.133 | Total movement distance [2]: 18435 ± 950.6 mm | Number of floating immobilities [3]: 54.64 ± 2.704 | Number of floating immobilities ([3]; listed as fluoxetine): significantly lower
